These results are taken from publication PMC3933419, “Synthesis and Properties of a Selective Inhibitor of Homeodomain–Interacting Protein Kinase 2 (HIPK2)” (PLoS ONE, 2014).

In series [1] the target is T1, CK2 (Rattus norvegicus, UniProt P19139).
T1 construct: Native CK2 and CK1 were purified from rat liver; from tissue; host or cells: rat liver
The experiment in a line: CK2 phosphorylation assay. The series is classed as biochemical. Particulars: 20 µM ATP. The protocol:
(§1) Native CK2 and CK1 were purified from rat liver.
(§2) PIM1, CK2, CK1 phosphorylation assays were performed following similar procedures used for HIPK2 except that preincubation was omitted. In detail, PIM1 activity was determined at 100 µM ATP concentration and in the presence of 30 µM synthetic peptide substrate […]. CK2 and CK1 activities were assayed in a buffer containing 50 mM Tris/HCl (pH 7.5), 100 mM NaCl, 12 mM MgCl2, 100 µM specific peptide substrate […] (for CK2), or 200 µM […] (for CK1) and 20 µM [γ-^33P]ATP (500–1000 c.p.m./pmol).

The target of series [2] is T2, HIPK2 (Homo sapiens, UniProt Q9H2X6).
T2 construct: The source of HIPK2 and of all of the other protein kinases used for specificity assays is as described elsewhere
T2 sequence (Q9H2X6 whole entry): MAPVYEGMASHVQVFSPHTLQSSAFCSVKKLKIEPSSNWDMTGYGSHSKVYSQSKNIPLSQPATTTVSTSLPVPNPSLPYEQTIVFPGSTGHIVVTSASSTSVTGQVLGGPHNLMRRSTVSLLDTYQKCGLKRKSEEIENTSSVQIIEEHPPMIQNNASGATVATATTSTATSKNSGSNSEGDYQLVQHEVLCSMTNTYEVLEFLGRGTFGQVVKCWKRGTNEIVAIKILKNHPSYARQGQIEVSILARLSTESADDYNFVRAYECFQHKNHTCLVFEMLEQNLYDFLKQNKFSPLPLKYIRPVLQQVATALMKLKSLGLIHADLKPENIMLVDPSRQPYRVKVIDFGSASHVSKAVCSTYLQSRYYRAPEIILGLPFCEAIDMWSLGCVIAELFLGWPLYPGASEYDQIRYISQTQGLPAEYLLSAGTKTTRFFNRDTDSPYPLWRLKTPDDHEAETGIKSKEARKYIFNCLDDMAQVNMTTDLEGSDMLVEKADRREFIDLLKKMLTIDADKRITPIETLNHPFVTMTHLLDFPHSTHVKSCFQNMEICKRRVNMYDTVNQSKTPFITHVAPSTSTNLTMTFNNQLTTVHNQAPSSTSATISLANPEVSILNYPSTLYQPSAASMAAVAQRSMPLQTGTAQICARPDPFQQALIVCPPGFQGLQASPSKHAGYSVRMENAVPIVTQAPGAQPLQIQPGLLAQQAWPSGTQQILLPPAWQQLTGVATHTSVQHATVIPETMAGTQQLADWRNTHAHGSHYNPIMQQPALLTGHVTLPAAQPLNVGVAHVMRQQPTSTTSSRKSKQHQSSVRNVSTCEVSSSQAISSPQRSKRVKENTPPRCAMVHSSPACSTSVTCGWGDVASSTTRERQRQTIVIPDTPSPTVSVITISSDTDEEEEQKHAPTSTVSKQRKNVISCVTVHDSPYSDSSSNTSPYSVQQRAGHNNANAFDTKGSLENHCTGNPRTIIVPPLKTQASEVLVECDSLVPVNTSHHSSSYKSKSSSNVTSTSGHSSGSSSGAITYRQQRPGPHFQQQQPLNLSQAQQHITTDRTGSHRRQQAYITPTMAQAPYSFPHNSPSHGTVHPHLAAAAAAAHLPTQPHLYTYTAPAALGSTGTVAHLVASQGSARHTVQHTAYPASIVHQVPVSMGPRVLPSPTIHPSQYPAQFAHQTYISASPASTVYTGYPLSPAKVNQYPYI
The series is described as follows: HIPK2 kinase inhibition assay (33P-ATP, peptide […]). The series is classed as biochemical. How it is done: The source of HIPK2 and of all of the other protein kinases used for specificity assays is as described elsewhere. […] The reaction was stopped by addition of 5 μl of 0.5 M orthophosphoric acid before spotting aliquots onto phosphocellulose filters. Filters were washed in 75 mM phosphoric acid (5-10 ml/each) four times and then once in methanol and dried before counting.

In series [3] the target is T3, PIM1 (Homo sapiens, UniProt P11309).
T3 construct: The source of HIPK2 and of all of the other protein kinases used for specificity assays is as described elsewhere
T3 sequence (P11309 whole entry, species assumed): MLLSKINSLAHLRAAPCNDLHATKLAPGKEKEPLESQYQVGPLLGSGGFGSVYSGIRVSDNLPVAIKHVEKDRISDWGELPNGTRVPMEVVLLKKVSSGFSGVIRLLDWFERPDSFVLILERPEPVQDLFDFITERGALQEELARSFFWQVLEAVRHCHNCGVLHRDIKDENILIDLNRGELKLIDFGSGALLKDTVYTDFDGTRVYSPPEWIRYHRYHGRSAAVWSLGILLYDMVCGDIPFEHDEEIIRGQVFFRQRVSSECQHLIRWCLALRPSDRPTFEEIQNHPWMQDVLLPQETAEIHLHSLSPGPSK
The experiment in a line: PIM1 phosphorylation assay. The series is classed as biochemical. Particulars: 100 µM ATP. The protocol: as §2

For series [4], the system named is CK1. The series is described as follows: CK1 phosphorylation assay. Particulars: 20 µM ATP. Type of series: biochemical, rat. The protocol:
as §1, §2

Series [5] has as its target T2, HIPK2. More on the design: method as in PMID 18588507. Particulars: TBB and TBI values; ref [19]; cited from earlier work.
In series [6] the target is T3, PIM1. More on the design: method as in PMID 18588507. To be noted: TBB and TBI values; ref [19]; cited from earlier work.
For series [7], the system named is CK1. More on the design: method as in PMID 18588507. To be noted: TBB and TBI values; ref [19]; cited from earlier work.
Series [8] relates to panel of 71 protein kinases. To be noted: 1 µM concentration, ref [9]; cited from earlier work.
The target of series [9] is T2, HIPK2. More on the design: method as in PMID 17850214. Particulars: 1 µM concentration; panel of 71 protein kinases; ref [9]; cited from earlier work.
In series [10] the test system is 70 PKs. More on the design: method as in PMID 21513497. To be noted: 10 µM TBI; ref [20]; cited from earlier work.
Series [11] addresses T1, CK2. More on the design: method as in PMID 18588507. To be noted: read-out: IC50 for CK2; TBB and TBI values; ref [19]; cited from earlier work.
The test system of series [12] is 70 PKs. The experiment in a line: Selectivity parameters (Lorenz curve, Gini coefficient, hit rate) of TBI. The series is classed as biochemical. Particulars: 10 µM, from data published in ref [19]. How it is done:
Lorenz curves were derived from the selectivity data. Gini coefficients and hit rates (expressing the percent of kinases inhibited >50% by a given compound) were calculated as described in [25].

Another series deals with T4, endogenous HIPK2 (Homo sapiens, UniProt Q9H2X6).
T4 construct: endogenous in cells; host or cells: HepG2
T4 sequence (Q9H2X6 whole entry): as the sequence (Q9H2X6 whole entry) above
The series is described as follows: Activity of HIPK2 immunoprecipitated from treated HepG2 cells. Type of series: cell-based. To be noted: HepG2 cells, increasing concentrations; immunoprecipitated HIPK2. How it is done: HepG2 cells (human hepatocellular carcinoma) were cultured in Dulbecco's modified Eagle's medium (DMEM; Sigma) supplemented with 10% fetal calf serum, 2 mM L-glutamine, 100 unit/ml penicillin and 100 µg/ml streptomycin; CEM cells (human T lymphoblastoid cells) were cultured n RPMI-1640 (Sigma) with the same supplements. Cells were cultured in an atmosphere containing 5% CO2, at 37°C. Treatments with TBID were performed in the same medium but with 1% fetal calf serum; control cells were treated with the solvent (DMSO). Total cell lysates were prepared as in [29].
Alternatively, HIPK2 was immunoprecipitated with 2.5 µl anti-HIPK2 (Epitomics) from 350 µg of total lysate proteins deriving from HepG2 cells either treated or not with TBID following a protocol elsewhere described. An aspecific antibody was used as negative control. Immunoprecipitated HIPK2 activity was measured towards the specific peptide substrate ([…]) at 1.6 mM concentration, for 10 min at 30°C, under the same conditions described above for the in vitro kinase assay. Peptide radioactivity was measured after sample spotting on phospho-cellulose paper, washing and scintillation counting, as in [30], while the amount of HIPK2 immunoprecipitated was evaluated by WB.

Where two headings read alike, the source gives them in different places.

T1 sequence (P19139 whole entry): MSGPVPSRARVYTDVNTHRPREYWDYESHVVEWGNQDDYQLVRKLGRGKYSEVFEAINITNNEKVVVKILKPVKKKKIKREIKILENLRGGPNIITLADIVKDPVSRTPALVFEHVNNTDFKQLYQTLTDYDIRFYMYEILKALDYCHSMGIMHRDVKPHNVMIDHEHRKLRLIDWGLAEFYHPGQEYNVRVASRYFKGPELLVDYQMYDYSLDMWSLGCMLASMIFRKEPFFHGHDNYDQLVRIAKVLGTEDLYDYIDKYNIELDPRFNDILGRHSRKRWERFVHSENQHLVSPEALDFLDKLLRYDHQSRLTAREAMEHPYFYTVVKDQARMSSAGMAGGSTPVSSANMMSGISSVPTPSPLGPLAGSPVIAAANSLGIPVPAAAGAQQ
T1 sequence (P67874 whole entry partner): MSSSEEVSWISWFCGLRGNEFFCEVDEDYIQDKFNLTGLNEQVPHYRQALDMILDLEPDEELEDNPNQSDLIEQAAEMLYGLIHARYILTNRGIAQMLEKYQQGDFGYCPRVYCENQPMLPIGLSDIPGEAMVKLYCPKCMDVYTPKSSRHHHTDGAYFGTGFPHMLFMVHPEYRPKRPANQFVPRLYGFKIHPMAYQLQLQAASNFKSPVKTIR

In general, melting point refers to the temperature, or range, at which the solid turns liquid. The term IC50 denotes the concentration that inhibits the measured activity by half. Take `O=C1c2c(Br)c(Br)c(Br)c(Br)c2C(=O)N1c1cnccn1` [5i, 4,5,6,7-Tetrabromo-2-(pyrazin-2-yl)isoindoline-1,3-dione]: the melting point was in the range of 272 to 275 °C. Further, the IC50 against CK2 [1] is > 40 µM. Also, half-maximal inhibition on HIPK2 [2] (20 µM ATP, in vitro) (IC50) required 3.62 µM. On PIM1 [3], the IC50 is > 40 µM. For the same compound, the IC50 in the series with CK1 [4] was > 40 µM.
As to `Brc1c(Br)c(Br)c2[nH]nnc2c1Br` [TBB, 4,5,6,7-tetrabromobenzotriazole], the results for the concentration for half-maximal inhibition (IC50) on HIPK2 [5], at PIM1 [6] and in the series on CK1 [7] were 5.3 µM, 1.04 µM and > 40 µM, respectively.
Take `O=C1c2c(Br)c(Br)c(Br)c(Br)c2C(=O)N1c1ccon1` [5h, 4,5,6,7-Tetrabromo-2-(isoxazol-3-yl)isoindoline-1,3-dione]: the melting point is 290 to 293 °C. The IC50 against CK2 [1] is > 40 µM. On HIPK2 [2] (20 µM ATP, in vitro), this compound gave an IC50 of 23.6 µM. Besides, the IC50 at PIM1 [3] was > 40 µM. Also, in the series on CK1 [4], the IC50 was > 40 µM.
For the compound `C[S+]([O-])c1ccc(-c2nc(-c3ccncc3)c(-c3ccc(F)cc3)[nH]2)cc1` (stereo not drawn) [SB203580], the “number of protein kinases inhibited >60%” value in [8] is listed as 6. Also, on HIPK2 [2] (up to 40 µM concentration), the “effect on HIPK2 activity” value is on record as “not appreciably affecting”. In addition, the “inhibition of HIPK2” value on HIPK2 [9] was 14%.
The compound `O=C1c2c(Br)c(Br)c(Br)c(Br)c2C(=O)N1c1nccs1` [5b, 4,5,6,7-Tetrabromo-2-(thiazol-2-yl)isoindoline-1,3-dione] yielded a melting point of 228 to 232 °C. This compound returned an IC50 on CK2 [1] of 16 µM. The IC50 on HIPK2 [2] (20 µM ATP, in vitro) was determined as 0.72 µM. The same compound displayed an IC50 against PIM1 [3] of 40 µM. In the series on CK1 [4], this compound gave an IC50 of 9.3 µM.
The corresponding values for `O=C1c2c(Br)c(Br)c(Br)c(Br)c2C(=O)N1c1nncs1` [5c, 4,5,6,7-Tetrabromo-2-(1,3,4-thiadiazol-2-yl)isoindoline-1,3-dione] are 310 to 311 °C, 24 µM, 2.6 µM, > 40 µM and > 40 µM.
`O=C1c2c(Br)c(Br)c(Br)c(Br)c2C(=O)N1c1ncns1` [5d, 4,5,6,7-Tetrabromo-2-(1,2,4-thiadiazol-5-yl)isoindoline-1,3-dione]: the melting point is 325 to 326 °C. In addition, it took 35 µM to reach half-maximal inhibition against CK2 [1] (IC50). Besides, inhibition on HIPK2 [2] (20 µM ATP, in vitro) was half-maximal at 2.5 µM (IC50). Moreover, the IC50 on PIM1 [3] was > 40 µM. In the series with CK1 [4], the IC50 was > 40 µM.
Turning to `O=C1c2c(Br)c(Br)c(Br)c(Br)c2C(=O)N1c1ncn[nH]1` [5g, 4,5,6,7-Tetrabromo-2-(1H-1,2,4-triazol-5-yl)isoindoline-1,3-dione], the melting point is > 360 °C. The compound further displayed an IC50 at CK2 [1] of 25 µM. For the same compound, the IC50 on HIPK2 [2] (20 µM ATP, in vitro) worked out at 22.7 µM. Besides, the IC50 against PIM1 [3] was > 40 µM. For the same compound, in the series with CK1 [4], the IC50 was > 40 µM.
`Brc1c(Br)c(Br)c2[nH]cnc2c1Br` [TBI]: the IC50 is 0.7 µM at HIPK2 [5]; 0.115 µM at PIM1 [6]; 1 µM against HIPK2 [2] (TBI value given in the text); 0.6 µM at CK2 [11]; 15 µM with CK1 [7]. Further, the “number of kinases inhibited >90%” value in the series on 70 PKs [10] is recorded as 10. In the series on 70 PKs [12], this compound gave a Gini coefficient of 0.310.
For the compound `Cc1cc(N2C(=O)c3c(Br)c(Br)c(Br)c(Br)c3C2=O)[nH]n1` [5f, 4,5,6,7-Tetrabromo-2-(3-methyl-1H-pyrazol-5-yl)isoindoline-1,3-dione], the melting point lay within 331 to 332 °C. Moreover, the IC50 against CK2 [1] was > 40 µM. Besides, the IC50 at HIPK2 [2] (20 µM ATP, in vitro) is > 40 µM. Also, the IC50 on PIM1 [3] is > 40 µM. Further, the IC50 in the series with CK1 [4] is > 40 µM.
In the case of `O=C1c2c(Br)c(Br)c(Br)c(Br)c2C(=O)N1c1ccn[nH]1` [5e, 4,5,6,7-Tetrabromo-2-(1H-pyrazol-5-yl)isoindoline-1,3-dione], the melting point is 333 to 334 °C (dec.). In addition, the “endogenous HIPK2 activity upon cell treatment” value on endogenous HIPK2 was “not”. This compound gave an IC50 against CK2 [1] of 23 µM. The IC50 at HIPK2 [2] (20 µM ATP, in vitro) is > 40 µM. On PIM1 [3], the IC50 is > 40 µM. The IC50 in the series on CK1 [4] is > 40 µM.
